As usually defined, the IC50 is the midpoint of a concentration-inhibition curve.

The values below come from PMC11678328, “Phosphine Oxide Indenoquinoline Derivatives: Synthesis and Biological Evaluation as Topoisomerase I Inhibitors and Antiproliferative Agents” (Molecules, 2024).

Data set [1] has as its system SKOV3 (human ovarian carcinoma). Put plainly: CCK-8 cytotoxicity assay, SKOV3. In kind it is cell-based. Conditions: SK-OV-3, SKOV3 cells, 48h. From the text: (§1) The cytotoxic effects of the newly synthesized diphenyl(tetrahydro-5H-indeno[2,1-c]quinolin-2-yl)phosphine oxides 8, diphenyl(7H-indeno[2,1-c]quinolin-2-yl)phosphine oxides 9, and diphenyl(7-oxo-7H-indeno[2,1-c]quinolin-2-yl)phosphine oxides 10 derivatives were studied against several human cell lines: A549 (carcinomic human alveolar basal epithelial cell), SKOV3 (human ovarian carcinoma), and HEK293 (human embryonic kidney). Furthermore, in order to analyze the selective cytotoxicity facing exclusively cancerous cell lines, toxicity against a non-cancerous cell line (MRC-5, lung fibroblast cells) was also evaluated (Table 3). The cell counting kit (CCK-8) assay was employed to assess the growth inhibition and cell proliferation inhibitory activities of the compounds, which are described in Table 3 as IC50 values.
(§2) Cells were cultured according to the supplier’s instructions. Cells were seeded in 96-well plates at a density of 1.5–3 × 10^3 cells per well and incubated overnight in 0.1 mL of media supplied with 10% Fetal Bovine Serum (Lonza) in a 5% CO2 incubator at 37 °C. On day 2, drugs were added and the samples were incubated for 48h. After treatment, 10 μL of the cell counting kit-8 was added into each well for an additional 2h incubation at 37 °C. The absorbance of each well was determined by an Automatic Elisa Reader System at 450 nm wavelength (deducting 620 nm). CPT was used as the positive control.
Background: Tetrazolium dyes change colour on reduction, which living cells bring about.

The test system of data set [2] is HEK293 (human embryonic kidney). Put plainly: CCK-8 cytotoxicity assay, HEK293. The settings on record: HEK293 cells, 48h. It counts as cell-based.
Description: as §1, §2

The test system of data set [3] is A549 (carcinomic human alveolar basal epithelial cell). The experiment in a line: CCK-8 cytotoxicity assay, A549. It counts as cell-based. The settings on record: for IC50: A549 cells, 48h, CCK-8.
Description: as §1, §2

The subject of data set [4] is MRC-5, lung fibroblast cells. The experiment in a line: CCK-8 cytotoxicity assay, MRC5. The settings on record: Homo sapiens; MRC5 non-cancerous cells, 48h, CCK-8. It counts as cell-based, human.
Description: as §1, §2

The next data set addresses T1, human TOP1 (Homo sapiens, UniProt P11387).
T1 construct: made in house; host or cells: Saccharomyces cerevisiae TOP1 null strain RS190, plasmid pHT143 (GAL promoter)
T1 sequence (P11387 1-765): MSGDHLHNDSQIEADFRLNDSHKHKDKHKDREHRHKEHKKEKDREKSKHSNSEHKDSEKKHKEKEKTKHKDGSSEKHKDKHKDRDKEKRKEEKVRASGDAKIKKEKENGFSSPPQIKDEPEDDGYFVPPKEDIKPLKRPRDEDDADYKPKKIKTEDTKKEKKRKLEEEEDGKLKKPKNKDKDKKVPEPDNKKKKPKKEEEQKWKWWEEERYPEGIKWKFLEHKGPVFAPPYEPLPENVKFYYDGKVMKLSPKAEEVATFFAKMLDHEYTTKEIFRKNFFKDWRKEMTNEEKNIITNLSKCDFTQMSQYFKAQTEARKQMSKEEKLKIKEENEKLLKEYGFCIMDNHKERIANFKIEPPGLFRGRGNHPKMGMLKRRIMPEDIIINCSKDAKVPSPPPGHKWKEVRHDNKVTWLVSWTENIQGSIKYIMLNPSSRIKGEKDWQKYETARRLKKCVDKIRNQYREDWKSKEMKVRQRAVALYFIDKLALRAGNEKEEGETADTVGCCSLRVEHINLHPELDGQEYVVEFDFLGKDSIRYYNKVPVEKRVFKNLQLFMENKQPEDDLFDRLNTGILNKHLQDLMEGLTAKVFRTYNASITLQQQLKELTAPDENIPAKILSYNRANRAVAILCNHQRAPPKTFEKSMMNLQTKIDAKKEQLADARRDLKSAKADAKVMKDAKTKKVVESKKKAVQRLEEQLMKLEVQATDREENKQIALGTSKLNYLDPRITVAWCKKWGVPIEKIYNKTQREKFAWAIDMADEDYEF
The experiment in a line: TOP1 supercoiled plasmid DNA relaxation assay. It counts as biochemical. The settings on record: for TOP1 Inhibition 1 min: 1 min reaction; for TOP1 Inhibition 1 min / TOP1 Inhibition 3 min / TOP1 Inhibition 5 min: compounds at 100 μM, semiquantitative; for TOP1 Inhibition 3 min: 3 min reaction; for TOP1 Inhibition 5 min: 5 min reaction. The source says: The effect of the previously prepared compounds as TOP1 inhibitors was studied. A conventional supercoiled plasmid relaxation assay was used to determine if the newly fused tetrahydroindenoquinolines 8, more aromatic indenoquinolines 9, and carbonyl derivatives 10 with phosphine oxide substituents inhibit human TOP1 activity by converting supercoiled plasmid DNA to its relaxed form. In these experiments, compound samples were mixed with the enzyme followed by the addition of a supercoiled plasmid DNA substrate, and incubation continued for increasing time intervals (1 min, 3 min, and 5 min). The reaction was terminated by the addition of SDS. DNA relaxation products were then resolved by 1% agarose electrophoresis gel and visualized by gel red staining.
The yeast Saccaromyces cerevisiae TOP1 null strain RS190, which was used for the expression of recombinant human TOP1, was a kind gift from R. Sternglanz (State University of New York, Stony Brook, NY, USA). Plasmid pHT143, for the expression of recombinant TOP1 under the control of an inducible GAL promoter, was described. The plasmids pHT143 were transformed into the yeast S. cerevisiae strain RS190. The proteins were expressed and purified by affinity chromatography essentially as described. The protein concentrations were estimated from Coomassie blue-stained SDS/polyacrylamide gels by comparison to serial dilutions of bovine serum albumin (BSA).
TOP1 activity was assayed using a DNA relaxation assay by incubating 110 ng/mL of TOP1 with 0.5 µg of negatively supercoiled pUC18 in […] of reaction buffer (20 mM Tris HCl, 0.1 mM Na2EDTA, 10 mM MgCl2, […] acetylated BSA, and 150 mM KCl, pH 7.5). The effect of the synthesized phosphorylated derivatives 8, 9, and 10 on the TOP1 activity was measured by adding different concentrations of the compounds, at different time points, as indicated in the text. The reactions were performed at 37 °C stopped by the addition of 0.5% SDS after the indicated time intervals. The samples were protease-digested and electrophoresed in a horizontal 1% agarose gel in 1xTBE (50 mM Tris, 45 mM boric acid, 1 mM EDTA) at 25V during 18h. The gel was stained with gel red (BIOTIUM, 5 mg/mL), destained with water, and photographed under UV illumination. Since all drugs were dissolved in dimethyl sulfoxide (DMSO), a […] control sample containing the same DMSO concentration as the samples incubated with the drugs was included in all experiments.

In the case of `O=P(c1ccccc1)(c1ccccc1)c1ccc2c(c1)C1c3ccccc3CC1C(c1cccc(F)c1)N2` (centres unmarked) [Compound 8d, Diphenyl(6-(3-fluorophenyl)-6,6a,7,11b-tetrahydro-5H-indeno[2,1-c]quinolin-2-yl)phosphine oxide], the IC50 in data set [1] was greater than 50 µM; in data set [2], greater than 50 µM; in data set [3] (Homo sapiens, A549, 48 h), 43.1 ± 12.1 µM; in data set [4] it was greater than 50 µM. Further, the “TOP1 Inhibition 1 min” value on human TOP1 is recorded as “++”. Besides, the “TOP1 Inhibition 3 min” value at human TOP1 was “++”. Moreover, the “TOP1 Inhibition 5 min” value on human TOP1 is recorded as “++”.

Turning to `O=P(c1ccccc1)(c1ccccc1)c1ccc2c(c1)C1c3ccccc3CC1C(c1ccc(F)c(F)c1)N2` (centres unmarked) [Compound 8e, Diphenyl(6-(3,4-difluorophenyl)-6,6a,7,11b-tetrahydro-5H-indeno[2,1-c]quinolin-2-yl)phosphine oxide], the IC50 in data set [1] is 13.2 ± 2.79 µM; in data set [2], greater than 50 µM; in data set [3] (Homo sapiens, A549, 48 h), greater than 50 µM; in data set [4], greater than 50 µM. In addition, the “TOP1 Inhibition 1 min” value on human TOP1 is “++”. At human TOP1, the “TOP1 Inhibition 3 min” value is recorded as “++”. Besides, the “TOP1 Inhibition 5 min” value at human TOP1 is reported as “++”.

Regarding `O=P(c1ccccc1)(c1ccccc1)c1ccc2c(c1)C1c3ccccc3CC1C(c1ccc(F)cc1F)N2` (centres unmarked) [Compound 8f, Diphenyl(6-(2,4-difluorophenyl)-6,6a,7,11b-tetrahydro-5H-indeno[2,1-c]quinolin-2-yl)phosphine oxide], the IC50 in data set [1] was 31 ± 3.17 µM; in data set [2], greater than 50 µM; in data set [3] (Homo sapiens, A549, 48 h), greater than 50 µM; in data set [4] it was greater than 50 µM. Besides, the “TOP1 Inhibition 1 min” value at human TOP1 is “+ (weak inhibition)”. Besides, the “TOP1 Inhibition 3 min” value on human TOP1 was “+ (weak inhibition)”. At human TOP1, the “TOP1 Inhibition 5 min” value is “+ (weak inhibition)”.

For the compound `O=P(c1ccccc1)(c1ccccc1)c1ccc2nc(-c3ccccc3)c3c(c2c1)-c1ccccc1C3` [Compound 9a, Diphenyl(6-phenyl-7H-indeno[2,1-c]quinolin-2-yl)phosphine oxide], the concentration for half-maximal inhibition (IC50) in data set [1] was greater than 50 µM; in data set [2], greater than 50 µM; in data set [3] (Homo sapiens, A549, 48 h), greater than 50 µM; in data set [4], greater than 50 µM. In addition, at human TOP1 (100 μM, in words), the “Persistence of TOP1 inhibition over the time course” value is “more persistent inhibition”. At human TOP1, the “TOP1 Inhibition 1 min” value is “+ (weak inhibition)”. For the same compound, the “TOP1 Inhibition 3 min” value on human TOP1 is “++”. Moreover, at human TOP1, the “TOP1 Inhibition 5 min” value is “++”.

Turning to `O=P(c1ccccc1)(c1ccccc1)c1ccc2nc(-c3ccc(F)cc3)c3c(c2c1)-c1ccccc1C3` [Compound 9c], the IC50 in data set [1] was greater than 50 µM; in data set [2] it was greater than 50 µM; in data set [3] (Homo sapiens, A549, 48 h), greater than 50 µM; in data set [4] it was greater than 50 µM. The “TOP1 Inhibition 1 min” value at human TOP1 was “+ (weak inhibition)”. Also, the “TOP1 Inhibition 3 min” value on human TOP1 is recorded as “+ (weak inhibition)”. Further, the “TOP1 Inhibition 5 min” value on human TOP1 is recorded as “+ (weak inhibition)”.

On to `O=P(c1ccccc1)(c1ccccc1)c1ccc2nc(-c3cccc(F)c3)c3c(c2c1)-c1ccccc1C3` [Compound 9d, Diphenyl(6-(3-fluorophenyl)-7H-indeno[2,1-c]quinolin-2-yl)phosphine oxide], for which the IC50 was greater than 50 µM in data set [1]; greater than 50 µM in data set [2]; greater than 50 µM in data set [3] (Homo sapiens, A549, 48 h); greater than 50 µM in data set [4]. Besides, the “TOP1 Inhibition 1 min” value on human TOP1 is recorded as “+ (weak inhibition)”. The “TOP1 Inhibition 3 min” value on human TOP1 was “+ (weak inhibition)”. In addition, the “TOP1 Inhibition 5 min” value at human TOP1 is given as “+ (weak inhibition)”.

On to `O=P(c1ccccc1)(c1ccccc1)c1ccc2nc(-c3ccc(F)cc3F)c3c(c2c1)-c1ccccc1C3` [Compound 9f, Diphenyl(6-(2,4-difluorophenyl)-7H-indeno[2,1-c]quinolin-2-yl)phosphine oxide], for which the IC50 in data set [1] is greater than 50 µM; in data set [2], greater than 50 µM; in data set [3] (Homo sapiens, A549, 48 h) it was 41.7 ± 7.25 µM; in data set [4], greater than 50 µM. In addition, the “Cytotoxicity against A549 (in words)” value in data set [3] is on record as “slight cytotoxicity”. Besides, the “TOP1 Inhibition 1 min” value on human TOP1 is on record as “++”. Besides, at human TOP1, the “TOP1 Inhibition 3 min” value is on record as “++”. In addition, the “TOP1 Inhibition 5 min” value on human TOP1 is “++”.

Turning to `COc1ccc(-c2nc3ccc(P(=O)(c4ccccc4)c4ccccc4)cc3c3c2Cc2ccccc2-3)cc1` [Compound 9h, Diphenyl(6-(4-methoxyphenyl)-7H-indeno[2,1-c]quinolin-2-yl)phosphine oxide], at human TOP1, the “TOP1 Inhibition 1 min” value is “++”, the “TOP1 Inhibition 3 min” value is reported as “++” and the “TOP1 Inhibition 5 min” value is reported as “++”.

In the case of `O=P(c1ccccc1)(c1ccccc1)c1ccc2nc(-c3ccc(Br)cc3)c3c(c2c1)-c1ccccc1C3` [Compound 9j, Diphenyl(6-(4-bromophenyl)-7H-indeno[2,1-c]quinolin-2-yl)phosphine oxide], the IC50 is greater than 50 µM in data set [1]; greater than 50 µM in data set [2]; greater than 50 µM in data set [3] (listed as 9k); 42.3 ± 2.09 µM in data set [3] (Homo sapiens, A549, 48 h); greater than 50 µM in data set [4]. Further, the “Cytotoxicity against A549 (in words)” value in data set [3] was “slight cytotoxicity”. Besides, at human TOP1, the “TOP1 Inhibition 1 min” value is “+ (weak inhibition)”. Besides, the “TOP1 Inhibition 3 min” value at human TOP1 was “+ (weak inhibition)”. Further, on human TOP1, the “TOP1 Inhibition 5 min” value is reported as “+ (weak inhibition)”.

In the case of `O=C1c2ccccc2-c2c1c(-c1cccc(F)c1)nc1ccc(P(=O)(c3ccccc3)c3ccccc3)cc21` [Compound 10d, (6-(3-Fluorophenyl)-7-oxo-7H-indeno[2,1-c]quinolin-2-yl)diphenylphosphine oxide], the IC50 in data set [1] was greater than 50 µM; in data set [2] it was greater than 50 µM; in data set [3] (Homo sapiens, A549, 48 h) it was greater than 50 µM; in data set [4], greater than 50 µM. Also, on human TOP1, the “TOP1 Inhibition 1 min” value is “+ (weak inhibition)”. On human TOP1, the “TOP1 Inhibition 3 min” value is given as “+ (weak inhibition)”. In addition, the “TOP1 Inhibition 5 min” value on human TOP1 is given as “+ (weak inhibition)”.

Consider `O=C1c2ccccc2-c2c1c(-c1ccc(F)c(F)c1)nc1ccc(P(=O)(c3ccccc3)c3ccccc3)cc21` [Compound 10e], for which the IC50 in data set [1] is greater than 50 µM; in data set [2], greater than 50 µM; in data set [3] (Homo sapiens, A549, 48 h), greater than 50 µM; in data set [4] it was greater than 50 µM. In addition, at human TOP1, the “TOP1 Inhibition 1 min” value is listed as “++”. The “TOP1 Inhibition 3 min” value at human TOP1 is reported as “++”. Moreover, the “TOP1 Inhibition 5 min” value on human TOP1 is listed as “++”.
